Measurements reported in the RepoRT retention time repository (doi:10.1016/j.jchromb.2020.122105).

How the values were obtained:
Conditions in all cases: stereoisomer not certain
[1] = RP, Waters ACQUITY UPLC BEH C18, 100 × 2.1 mm, 1.7 µm, 0.1 mL/min, estimated dead time 2.2 min; A: water + 0.1% formic acid, pH 3; B: methanol + 0.1% formic acid, pH 3; gradient (min/%B) 0/5 5/5 25/100 30/100 30.1/5 35/5
[2] = RP, Waters ACQUITY UPLC BEH C18, 100 × 2.1 mm, 1.7 µm, 0.1 mL/min, estimated dead time 2.2 min; A: water + 0.045% formic acid + 0.11% ammonium hydroxide, pH 7; B: methanol; gradient (min/%B) 0/5 5/5 25/95 25.1/100 35/100 35.1/5 45/5
[3] = RP, Thermo Scientific Hypercarb, 150 × 2.1 mm, 5 µm, 0.1 mL/min, estimated dead time 3.3 min; A: water + 0.1% formic acid, pH 3; B: methanol + 0.1% formic acid, pH 3; gradient (min/%B) 0/5 5/5 20/100 35/100 35.1/5 45/5
[4] = RP, Waters CORTECS T3, 100 × 2.1 mm, 2.7 µm, 0.2 mL/min, estimated dead time 1.1 min; A: water + 0.045% formic acid + 0.11% ammonium hydroxide, pH 7; B: methanol; gradient (min/%B) 0/5 5/5 25/95 25.1/100 35/100 35.1/5 45/5
[5] = RP, Waters ACQUITY UPLC BEH C18, 100 × 2.1 mm, 1.7 µm, 0.1 mL/min, estimated dead time 2.2 min; A: water + 0.1% formic acid, pH 3; B: methanol + 0.1% formic acid, pH 3; gradient (min/%B) 0/5 5/5 25/95 25.1/100 35/100 35.1/5 45/5
[6] = RP, Waters CORTECS T3, 100 × 2.1 mm, 2.7 µm, 0.15 mL/min, estimated dead time 1.5 min; A: water + 0.1% formic acid, pH 3; B: methanol + 0.1% formic acid, pH 3; gradient (min/%B) 0/0 1/0 6/5 30/100 35/100 35.1/0 40/0
[7] = RP, Waters CORTECS T3, 100 × 2.1 mm, 2.7 µm, 0.3 mL/min, estimated dead time 0.73 min; A: water + 0.1% formic acid, pH 3; B: methanol + 0.1% formic acid, pH 3; gradient (min/%B) 0/0 5/0 25/100 30/100 30.1/0 35/0
[8] = RP, Waters CORTECS T3, 100 × 2.1 mm, 2.7 µm, 0.25 mL/min, estimated dead time 0.88 min; A: water + 0.1% formic acid, pH 3; B: methanol + 0.1% formic acid, pH 3; gradient (min/%B) 0/0 1/0 6/5 30/100 35/100 35.1/0 40/0
[9] = RP, Waters CORTECS T3, 100 × 2.1 mm, 2.7 µm, 0.1 mL/min, estimated dead time 2.2 min; A: water + 0.1% formic acid, pH 3; B: methanol + 0.1% formic acid, pH 3; gradient (min/%B) 0/5 5/5 25/95 25.1/100 35/100 35.1/5 45/5
[10] = RP, Waters CORTECS T3, 100 × 2.1 mm, 2.7 µm, 0.2 mL/min, estimated dead time 1.1 min; A: water + 0.1% formic acid, pH 3; B: methanol + 0.1% formic acid, pH 3; gradient (min/%B) 0/0 1/0 6/5 30/100 35/100 35.1/0 40/0
[11] = RP, Waters CORTECS T3, 100 × 2.1 mm, 2.7 µm, 0.3 mL/min, estimated dead time 0.73 min; A: water + 0.1% formic acid, pH 3; B: methanol + 0.1% formic acid, pH 3; gradient (min/%B) 0/5 5/5 25/100 30/100 30.1/5 35/5
[12] = RP, Waters ACQUITY UPLC BEH C18, 100 × 2.1 mm, 1.7 µm, 0.1 mL/min, estimated dead time 2.2 min; A: water + 0.1% formic acid, pH 3; B: methanol + 0.1% formic acid, pH 3; gradient (min/%B) 0/5 5/5 25/95 25.1/100 35/100 35.1/5 45/5; remark: listed apart in the source
[13] = RP, Waters CORTECS T3, 100 × 2.1 mm, 2.7 µm, 0.3 mL/min, estimated dead time 0.73 min; A: water + 0.1% formic acid, pH 3; B: methanol + 0.1% formic acid, pH 3; gradient (min/%B) 0/5 5/5 25/95 25.1/100 35/100 35.1/5 45/5
[14] = RP, Waters CORTECS T3, 100 × 2.1 mm, 2.7 µm, 0.3 mL/min, estimated dead time 0.73 min; A: water + 0.1% formic acid, pH 3; B: methanol + 0.1% formic acid, pH 3; gradient (min/%B) 0/0 1/0 6/5 30/100 35/100 35.1/0 40/0
[15] = RP, Waters ACQUITY UPLC BEH C18, 100 × 2.1 mm, 1.7 µm, 0.2 mL/min, estimated dead time 1.1 min; A: water + 0.025% formic acid + 20 mM ammonium acetate + 0.055% ammonium hydroxide, pH 7; B: methanol; gradient (min/%B) 0/5 5/5 25/100 30/100 30.1/5 35/5
[16] = RP, Waters ACQUITY UPLC BEH C18, 100 × 2.1 mm, 1.7 µm, 0.2 mL/min, estimated dead time 1.1 min; A: water + 0.1% formic acid, pH 3; B: methanol + 0.1% formic acid, pH 3; gradient (min/%B) 0/5 5/5 25/100 30/100 30.1/5 35/5
[17] = RP, Waters CORTECS T3, 100 × 2.1 mm, 2.7 µm, 0.3 mL/min, estimated dead time 0.73 min; A: water + 0.1% formic acid, pH 3; B: methanol + 0.1% formic acid, pH 3; gradient (min/%B) 0/0 1/0 6/5 30/100 35/100 35.1/0 40/0; remark: listed apart in the source
[18] = RP, Waters CORTECS T3, 100 × 2.1 mm, 2.7 µm, 0.2 mL/min, estimated dead time 1.1 min; A: water + 0.1% formic acid, pH 3; B: methanol + 0.1% formic acid, pH 3; gradient (min/%B) 0/0 1/0 6/5 30/100 35/100 35.1/0 40/0; remark: listed apart in the source
[19] = RP, Waters CORTECS T3, 100 × 2.1 mm, 2.7 µm, 0.3 mL/min, estimated dead time 0.73 min; A: water + 0.1% formic acid, pH 3; B: methanol + 0.1% formic acid, pH 3; gradient (min/%B) 0/0 5/0 25/100 30/100 30.1/0 35/0; remark: listed apart in the source
[20] = RP, Waters CORTECS T3, 100 × 2.1 mm, 2.7 µm, 0.25 mL/min, estimated dead time 0.88 min; A: water + 0.1% formic acid, pH 3; B: methanol + 0.1% formic acid, pH 3; gradient (min/%B) 0/5 5/5 25/95 25.1/100 35/100 35.1/5 45/5
[21] = HILIC, Merck SeQuant ZIC-HILIC, 150 × 2.1 mm, 5 µm, 0.75 mL/min, estimated dead time 0.44 min; A: water + 0.1% acetic acid + 10 mM ammonium acetate, pH 4; B: 5% water + 95% acetonitrile + 0.1% acetic acid + 10 mM ammonium acetate, pH 4; gradient (min/%B) 0/95 5/95 20/57 25/57 30/95 40/95
[22] = RP, Waters ACQUITY UPLC BEH C18, 100 × 2.1 mm, 1.7 µm, 0.1 mL/min, estimated dead time 2.2 min; A: water + 0.1% formic acid, pH 3; B: methanol + 0.1% formic acid, pH 3; gradient (min/%B) 0/5 5/5 25/95 25.1/100 35/100 35.1/5 45/5; remark: listed apart in the source
[23] = RP, Waters CORTECS T3, 100 × 2.1 mm, 2.7 µm, 0.2 mL/min, estimated dead time 1.1 min; A: water + 0.1% formic acid, pH 3; B: methanol + 0.1% formic acid, pH 3; gradient (min/%B) 0/5 5/5 25/95 25.1/100 35/100 35.1/5 45/5
[24] = RP, Waters ACQUITY UPLC BEH C18, 100 × 2.1 mm, 1.7 µm, 0.2 mL/min, estimated dead time 1.1 min; A: water + 0.025% formic acid + 20 mM ammonium acetate + 0.055% ammonium hydroxide, pH 7; B: methanol; gradient (min/%B) 0/5 5/5 25/100 30/100 30.1/5 35/5; remark: listed apart in the source
[25] = RP, Waters CORTECS T3, 100 × 2.1 mm, 2.7 µm, 0.1 mL/min, estimated dead time 2.2 min; A: water + 0.1% formic acid, pH 3; B: methanol + 0.1% formic acid, pH 3; gradient (min/%B) 0/0 1/0 6/5 30/100 35/100 35.1/0 40/0

Structure (SMILES) | LC retention time [1] [min] | LC retention time [2] [min] | LC retention time [3] [min] | LC retention time [4] [min] | LC retention time [5] [min] | LC retention time [6] [min] | LC retention time [7] [min] | LC retention time [8] [min] | LC retention time [9] [min] | LC retention time [10] [min] | LC retention time [11] [min] | LC retention time [12] [min] | LC retention time [13] [min] | LC retention time [14] [min] | LC retention time [15] [min] | further results
NCCc1c[nH]c2ccc(O)cc12 [SEROTONIN] | 2.74 | 13.9 | 14.4 | 10.7 | 2.66 |  |  |  |  |  |  |  |  |  |  | 
O=c1cc[nH]c(=O)[nH]1 [URACIL] | 2.76 |  | 21.2 |  |  | 1.85 | 0.91 | 1.11 | 2.68 | 1.36 | 0.95 | 2.69 |  |  |  | 
CCCCCCCCCC(=O)OCC(COP(=O)([O-])OCC[N+](C)(C)C)OC(=O)CCCCCCCCC (centres undefined) [1,2-DIDECANOYL-SN-GLYCERO-3-PHOSPHOCHOLINE] |  | 29.7 |  | 26 |  | 30.9 |  | 29.2 |  | 29.8 | 24.3 | 29.7 | 25.3 | 28.7 | 26 | 
Nc1ncnc2c1ncn2C1CC(O)C(COP(=O)(O)O)O1 (centres undefined) [DAMP] | 2.74 |  |  |  |  | 1.78 |  | 1.09 |  | 1.34 |  | 2.72 | 0.9 | 0.92 |  | LC retention time [16]: 1.38 min; LC retention time [17]: 0.92 min; LC retention time [18]: 1.35 min; LC retention time [19]: 0.89 min; LC retention time [20]: 1.08 min; LC retention time [21]: 12.9 min; LC retention time [22]: 2.7 min; LC retention time [23]: 2.67 min; LC retention time [24]: 1.36 min
NC(=O)c1cccnc1 [NICOTINAMIDE] | 3.66 | 6.91 | 24.4 | 3.68 |  | 3.31 | 1.63 | 1.9 | 3.38 | 2.36 | 1.2 | 2.69 | 1.17 | 1.57 | 3.89 | 
Nc1nc2c(ncn2C2OC(COP(=O)(O)O)C(O)C2O)c(=O)[nH]1 (centres undefined) [GUANOSINE 5'-MONOPHOSPHATE] |  |  |  |  |  |  |  | 1.09 |  |  |  | 2.84 | 0.9 |  |  | LC retention time [16]: 1.79 min; LC retention time [17]: 0.92 min; LC retention time [18]: 1.35 min; LC retention time [19]: 0.89 min; LC retention time [20]: 1.08 min; LC retention time [23]: 2.67 min
C[N+](C)(C)CCOP(=O)([O-])OCC(O)CO (centres undefined) [SN-GLYCERO-3-PHOSPHOCHOLINE] |  |  | 5.02 |  |  |  |  |  |  |  |  | 2.66 |  |  |  | 
NC(Cc1cc(I)c(Oc2cc(I)c(O)c(I)c2)c(I)c1)C(=O)O (centres undefined) [THYROXINE] | 22.7 |  |  |  | 23.5 | 23.9 | 18.9 | 22.1 |  | 22.8 | 18.5 |  | 19.1 | 21.6 |  | LC retention time [25]: 20.3 min
O=c1cccc[nH]1 [2-HYDROXYPYRIDINE] | 5.99 | 5.83 |  | 2.92 |  | 5.81 | 2.85 | 3.26 | 5.41 | 4.15 | 1.91 | 2.75 | 1.89 | 2.69 | 3.24 | LC retention time [25]: 2.74 min
CN1CCC[C@H]1c1cccnc1 [(S)-NICOTINE] | 2.74 | 16.1 | 4.86 | 11.7 | 2.66 | 1.78 | 0.89 | 1.09 |  | 1.34 |  |  |  |  | 11.2 | 
